Measurements from patent US10695371B2, “Modification of extracorporeal photopherisis technology with porphyrin precursors” (Oslo Universitetssykehus HF, priority 2014, dated 2020).
“Also recorded” adds a separate entry of the source.

Tests used:
Jurkat cells [1] = test: Assessment of apoptotic cells by fluorescence microscopy (Hoechst 33342 / PI); assay type: cell-based, human
Procedure: The cells were collected from the cultivation flasks, centrifuged at 1400 rpm for 5 min and diluted in the serum-free RPMI 1640 medium to a density of 37.5×10^5 cells/ml. Eighty microliters of cell suspension were portioned into 96 well plates. […] For the UV-A irradiation of samples, a home-made UV-A lamp (Sorensen UV-A lamp, Phillips Th […]/09) emitting light mainly in the region 340-410 nm was used (FIG. 1). For the blue light illumination of samples, the light from a bank of four fluorescent tubes (model 3026, Applied Photophysics, London, United Kingdom) emitting light mainly in the region 410-500 nm with a maximum around 440 nm was used (FIG. 1). Apoptotic cells were identified by fluorescence microscopy based on nuclear morphology after staining with 4.0 μg/mI Hoechst 33342 (Sigma, St. Louis, Mo.) at 37° C. for 10 min. This assay was verified in our previous experiments. […] For PI fluorescence detection, the filter combination consisted of a 540/25 nm excitation filter, a 565 nm beam splitter, and a 605/55 nm band-pass emission filter. Fluorescence images were captured by a highly light sensitive thermo-electrically cooled charge-coupled device camera […] (Hamamatsu, Japan).

[2] = system: human T-cell lymphoma cell line, Jurkat; test: In vitro cell proliferation assay (MTS) after HAL and/or 8-MOP plus light; assay type: cell-based; details: for Dark toxicity (MTS assay): no light
Procedure: The human T-cell lymphoma cell line, Jurkat (ATCC number: TIB-152TM), growing in suspensions at passages 4-24 was used in the study. […] For subcultivation, the cells were diluted to a density of 3×10^5 cells/ml every second day. […] The cells were collected from the cultivation flasks, centrifuged at 1400 rpm for 5 min and diluted in the serum-free RPMI 1640 medium to a density of 37.5×10^5 cells/ml. Eighty microliters of cell suspension were portioned into 96 well plates. […] For the UV-A irradiation of samples, a home-made UV-A lamp (Sorensen UV-A lamp, Phillips Th […]/09) emitting light mainly in the region 340-410 nm was used (FIG. 1). For the blue light illumination of samples, the light from a bank of four fluorescent tubes (model 3026, Applied Photophysics, London, United Kingdom) emitting light mainly in the region 410-500 nm with a maximum around 440 nm was used (FIG. 1). […] Twenty four hours after irradiation, 20 μl of MTS (Promega Corporation, Madison, Wis.) was added to each well. Absorbance at 492 nm was measured after one hour incubation at 37° C. by means of a well plate reader (Multiskan Ex, Labsystems, Finland).

Jurkat cells [3] = test: In vitro long term cell survival assay in methylcellulose-based semisolid medium; design: species or system human
Procedure: The cells were collected from the cultivation flasks, centrifuged at 1400 rpm for 5 min and diluted in the serum-free RPMI 1640 medium to a density of 37.5×10^5 cells/ml. Eighty microliters of cell suspension were portioned into 96 well plates. […] For the UV-A irradiation of samples, a home-made UV-A lamp (Sorensen UV-A lamp, Phillips Th […]/09) emitting light mainly in the region 340-410 nm was used (FIG. 1). For the blue light illumination of samples, the light from a bank of four fluorescent tubes (model 3026, Applied Photophysics, London, United Kingdom) emitting light mainly in the region 410-500 nm with a maximum around 440 nm was used (FIG. 1). Methylcellulose-based medium human MethoCult® with recombinant cytokines, (H4034, StemCell Technologies, France) was used for survival assay. […] The samples were treated according to the manufacturer's instructions and suspensions were transferred into 35 mm Petri dishes. They were incubated at 37° C. in a humidified incubator with 5% CO2.

mice = details: cited from earlier work
[4] = system: CD4+ T lymphocytes collected from a GvHD patient; test: Ex vivo ALA-ECP killing of patient CD4+ T lymphocytes (flow cytometry); assay type: cell-based, human; details: particularly at a low light dose, 5-min light illumination
Procedure: (§1) A suitable dose and incubation time of ALA was used in leukocyte samples collected from ECP patients. The dark toxicity of ALA at the concentration in question was evaluated, followed by the ALA/UVA-mediated killing efficiency before studies on the mechanism of its action (apoptosis/necrosis). The lymphocytes from patients were incubated with ALA under the optimized experimental conditions before exposure to the UVA lamp in the Therakos Photopheresis System at the same light dose as used in the ECP treatment. The cell survival of ALA dark toxicity, ALA/UVA-mediated killing efficiency and apoptosis/necrosis were measured with flow cytometry using combined labelling of CD4^+ or CD8^+ with Annexin V/PI staining.
(§2) The killing effects of 5-ALA (a porphyrin precursor) plus the UVA light irradiation on CD4^+/CD8^+ T lymphocytes collected from a Graft versus Host Disease (GvHD) patient who went to a standard photopheresis treatment was evaluated. The cells were exposed to ALA+UVA in the standard photopheresis machine, and percentage survival evaluated at various timepoints between 1 h and 20 h. The 8-MOP plus UVA used for the standard photopheresis was also included for comparison. The cell survival was measured with flow cytometry using a combined staining of CD4/CD8 antibody, Annexin-V and eFluor450.

[5] = system: Jurkat human T-cell lymphoma cells; test: ALA/UVA killing of Jurkat cells (PI staining); assay type: cell-based; details: 1 mM ALA for 1 hour, 10% foetal bovine serum, then UVA light exposure
Procedure: Optimization of experimental conditions for ALA-ECP was performed in Jurkat cells, varying ALA concentration (1 to 5 mM) and treatment time (1 to 4 hours) in the presence of 10% foetal bovine serum. The cells were then exposed to UVA for 10 min using an UV-A lamp with almost identical emission spectra to those of the UV-A lamp used in the existing commercial Therakos photopheresis system. The cell survival after the ALA/UVA treatment was measured by fluorescence microscopy with propidium iodide (PI) staining.

[6] = system: CD8+ T lymphocytes collected from a GvHD patient; test: Ex vivo ALA-ECP killing of patient CD8+ T lymphocytes (flow cytometry); assay type: cell-based, human; details: particularly at a low light dose, 5-min light illumination
Procedure: as §1, §2

[7] = system: human leukocytes from GvHD or CTLC patients; test: 5-ALA dark toxicity on human leukocytes; assay type: cell-based; details: 10 mM 5-ALA, 17-24 hours, no light
Procedure: The general safety of 5-ALA in absence of light-mediated activation (dark toxicity) was next evaluated. Blood samples from 10 GvHD or CTLC patients were treated with 10 mM 5-ALA at 37° C. in a 5% CO2 humidified incubator overnight (17-24 hours). Buffy coat samples from patients were directly harvested from the Therakos Photopheresis System during the standard photopheresis treatment. The cells incubated with the culture medium containing no 5-ALA were also included as a control in all individuals. The leukocytes were then labelled with antibodies for flow cytometry analysis of various subpopulations. The antibodies used were: CD45 PerCP-Cyanine5.5 for leukocytes, CD4 FITC for T helper cells, CD8 FITC for T cytotoxic cells and CD19 FITC for B-cells. The cells were also labelled with Fixable Viability Dye eFluor 450 for dead cells and Annexin V for apoptotic/dead cells. The different subpopulations of leukocytes were gated out and analyzed for cell viability. The cells that were negative for both the Fixable Viability Dye eFluor 450 and Annexin V were considered as viable cells.

rats = details: cited from earlier work
humans = details: oral ALA; normally resolves after 48 hours; cited from earlier work
[8] = system: Proliferative (transformed or activated) T-cells; test: ALA-induced PpIX production in proliferative versus resting T-cells; assay type: cell-based

COc1c2occc2cc2ccc(=O)oc12 [8-MOP, 8-methoxypsoralen]
mode of cell death, twenty hours following treatment (Jurkat cells [1]; 1.00 μM 8-MOP followed by UV-A): almost all the cells seemed to die by apoptosis
ability to sensitise the cells to photoinactivation when UV-A lamp spectrum shifted by few nm ([2]; 1.00 μM 8-MOP): significantly increased
Effect of presence of 8-MOP on cell proliferation during HAL-based PDT with blue light ([2]; 1.00 μM 8-MOP, blue light): did not affect cell proliferation
Dark toxicity (MTS assay) ([2]; 8-MOP up to 1.00 μM): no indication for dark toxicities
cell proliferation measured by MTS assay with increasing 8-MOP concentration ([2]; UV-A 5 and 10 min, absence of HAL): decreasing cell proliferation
Number of colonies (high cell density areas formed in semisolid medium 2 weeks after treatment) (Jurkat cells [3]; 1.00 μM MOP/10 min UV-A): 0.8 ± 2.0
number of experiments when colonies were formed/total number of experiments (Jurkat cells [3]; 1.00 μM MOP/10 min UV-A): 1/6

NCC(=O)CCC(=O)O [ALA, 5-aminolevulinic acid]
LD50 (mice; mice, single dose of oral or intraperitoneal administration): 2,500 mg/kg body weight
toxic effects after single intravenous injection (mice; mouse, in vivo, iv, 500 mg/kg): No observable toxic effects
killing of CD4+ T-cells, ALA plus UVA versus 8-MOP plus UVA [4]: much more effectively than 8-MOP plus UVA
Jurkat cells killed [5]: More than 95%
killing of CD8+ T-cells, ALA plus UVA versus 8-MOP plus UVA [6]: much more effectively than 8-MOP plus UVA
dark cytotoxic effect on leukocytes [7]: no significant dark cytotoxic effect
toxic effects after single intravenous injection (rats; rat, in vivo, iv, 250 mg/kg): No observable toxic effects
LD50 (rats; rats, single dose of oral or intraperitoneal administration): 2,500 mg/kg body weight
most common side effects (humans): nausea, vomiting and a transient rise in liver enzymes
ALA-induced PpIX production, proliferative versus normal resting T-cells [8]: about 15 fold

CCCCCCOC(=O)CCC(=O)CN [HAL, hexyl 5-amino-4-oxopentanoate]
Cell appearance 20 hours after treatment (Jurkat cells [1]; 1.55 μM HAL, 10 min UV-A, sample to sample variations): mostly apoptotic + some alive, or; also recorded: mostly necrotic + some apoptotic*
apoptotic bodies, twenty hours following treatment (Jurkat cells [1]; 5.00 μM HAL and 10 min UV-A irradiation): no apoptotic bodies could be seen
Cell appearance 20 hours after treatment (Jurkat cells [1]; 5.00 μM HAL, 10 s UV-A): apoptotic + alive (similar
Cell appearance 20 hours after treatment (Jurkat cells [1]; 5.00 μM HAL, 10 s blue light): mostly apoptotic + some alive
Cell appearance 20 hours after treatment (Jurkat cells [1]; 5.00 μM HAL, 10 min UV-A): only necrotic, no apoptotic
Cell proliferation, evaluated by MTS assay ([2]; HAL 4 h, 10 or 20 s blue light or 5 or 10 min UV-A): decrease in a concentration-dependent manner
Dark toxicity (MTS assay) ([2]; HAL up to 11.00 μM): no indication for dark toxicities
HAL concentration sufficient to decrease cell proliferation to minimum after light exposure ([2]; UV-A 5 or 10 min): 5.00 µM
Number of colonies (high cell density areas formed in semisolid medium 2 weeks after treatment) (Jurkat cells [3]; 5.00 μM HAL/10 min UV-A): 0
Number of colonies (high cell density areas formed in semisolid medium 2 weeks after treatment) (Jurkat cells [3]; 7.40 μM HAL/10 s blue light): 4.5 ± 5.6
number of experiments when colonies were formed/total number of experiments (Jurkat cells [3]; 7.40 μM HAL/10 s blue light): 4/6
